This note sets out measurements from ChEMBL document CHEMBL5233272, “Nimbolide, a Neem Limonoid, Is a Promising Candidate for the Anticancer Drug Arsenal” (J Med Chem, 2021).

The nature of data set [1]: Oral bioavailability in Sprague-Dawley rat at 10 mg/kg measured upto 72 hrs. Type of data set: ADME, organism-based. Conditions: in vivo.
The nature of data set [2]: Oral bioavailability in Sprague-Dawley rat at 30 mg/kg measured upto 72 hrs. Type of data set: ADME, organism-based. As to conditions: in vivo.
Data set [3] is described as follows: Oral bioavailability in Sprague-Dawley rat at 50 mg/kg measured upto 72 hrs. Type of data set: ADME, organism-based. As to conditions: in vivo.
The nature of data set [4]: Cmax in mouse at 3 mg/kg, po measured after 2 hrs by LC-MS/MS analysis. Details: dose 3 mg/kg, time 2 hrs, route po. Conditions: in vivo. Type of data set: ADME, organism-based.
The nature of data set [5]: Drug concentration in athymic Nu/Nu mouse plasma xenografted with human HCT-116 cells transfected with luciferase at 5 mg/kg, ip administered daily for 10 days by HPLC analysis. As to conditions: time 10 day, read-out: Drug uptake. Format: ADME, organism-based. (In general: A xenograft is tissue or cells of one species grown in another, often human tumour cells in immunodeficient mice.)

Data set [6] can be described thus: Drug concentration in athymic Nu/Nu mouse plasma xenografted with human HCT-116 cells transfected with luciferase at 20 mg/kg, ip administered daily for 10 days by HPLC analysis. Type of data set: ADME, organism-based. As to conditions: time 10 day, read-out: Drug uptake.
Data set [7] is described as follows: Drug concentration in athymic Nu/Nu mouse tumor xenografted with human HCT-116 cells transfected with luciferase at 5 mg/kg, ip administered daily for 10 days by HPLC analysis. Conditions: time 10 day, read-out: Drug uptake. Type of data set: ADME, organism-based, Neoplasm.
Data set [8] can be described thus: Drug concentration in athymic Nu/Nu mouse tumor xenografted with human HCT-116 cells transfected with luciferase at 20 mg/kg, ip administered daily for 10 days by HPLC analysis. As to conditions: time 10 day, read-out: Drug uptake. Format: ADME, organism-based, Neoplasm.
A short description of data set [9]: Acute toxicity in ip dosed Swiss albino mouse assessed as lethal dose. Conditions: in vivo. Type of data set: organism-based.
Data set [10] can be described thus: Acute toxicity in iv dosed Swiss albino mouse assessed as lethal dose. Conditions: in vivo. Format: organism-based.
Data set [11] is described as follows: Acute toxicity in ip dosed rat assessed as lethal dose. Format: organism-based. Conditions: in vivo.
Data set [12] in a line: Acute toxicity in ip dosed Syrian golden hamster assessed as lethal dose. Format: organism-based, Mesocricetus auratus. Conditions: in vivo.

A word on the bioavailability: it is dose-corrected exposure relative to a reference, in per cent. The term Cmax denotes the maximum level reached in the sampled fluid or tissue. By LD50 is commonly meant the dose expected to kill half of the subjects tested.

Each structure is given as a SMILES string.

As for `COC(=O)C[C@H]1[C@]2(C)C3=C(C)[C@H](c4ccoc4)C[C@H]3O[C@@H]2[C@@H]2OC(=O)[C@]3(C)C=CC(=O)[C@@]1(C)[C@@H]23` [NIMBOLIDE], the bioavailability in data set [1] is 2.72%; in data set [2], 1.76%; in [3], 3.06%. The compound also yielded a Cmax in data set [4] of 780 nM. For the same compound, the concentration at 240 h in [5] is 222 ng/mL; in [6] it was 409 ng/mL; in data set [7], 345 ng/g; in data set [8], 868 ng/g. The median lethal dose (LD50) in data set [9] was 225 mg/kg; in data set [10], 24 mg/kg; in data set [11], 600 mg/kg; in [12] it was 500 mg/kg.
